Measurements published in patent US9504692B2, “Selective inhibition of MALT1 protease by phenothiazine derivatives” (HELMHOLTZ ZENTRUM MUNCHEN, DEUTSCHES FORSCHUNGSZENTRUM FUR …, priority 2011, dated 2016).
“Also recorded” adds a separate entry of the source. Read-outs that look alike come from different tables or passages of the source. *1 amine or outer side, *2 acyl side, *3 side chain or, on linkers, in order; H or OH if unused. Where a SMILES comes first, the peptide text is derived from it. [ ]: non-standard residue; d: D form. The star is where a group is joined. Sta = CC(C)C[C@H](N)[C@@H](O)CC(=O)O; Isovaleryl = CC(C)CC(=O)*; CO = O=C([*:1])[*:2]

Key:
[1] = biological target: human recombinant CASP8 (Homo sapiens (Human), UniProt Q14790); test: CASP8 cleavage assay with Ac-DEVD-AMC; format: biochemical; conditions: 50 pM; picomolar concentrations
Chain of human recombinant CASP8 (Q14790 217-374): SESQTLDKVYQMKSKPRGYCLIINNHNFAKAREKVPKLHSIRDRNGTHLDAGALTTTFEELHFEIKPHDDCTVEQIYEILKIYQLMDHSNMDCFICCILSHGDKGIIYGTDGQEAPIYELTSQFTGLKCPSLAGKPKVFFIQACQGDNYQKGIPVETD
Chain of human recombinant CASP8 (Q14790 385-479): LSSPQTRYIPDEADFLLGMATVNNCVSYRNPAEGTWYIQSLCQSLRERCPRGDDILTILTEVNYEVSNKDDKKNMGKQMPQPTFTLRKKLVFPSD
Experimental: After incubation of 16 h at 4° C.

[2] = biological target: recombinant full length (FL) GSTMALT1 (Homo sapiens (Human), UniProt Q9UDY8); test: Recombinant GSTMALT1 cleavage assay with Ac-LRSR-AMC; format: biochemical
Chain of recombinant full length (FL) GSTMALT1 (Q9UDY8 other isoform, or with tags, fused parts or gaps): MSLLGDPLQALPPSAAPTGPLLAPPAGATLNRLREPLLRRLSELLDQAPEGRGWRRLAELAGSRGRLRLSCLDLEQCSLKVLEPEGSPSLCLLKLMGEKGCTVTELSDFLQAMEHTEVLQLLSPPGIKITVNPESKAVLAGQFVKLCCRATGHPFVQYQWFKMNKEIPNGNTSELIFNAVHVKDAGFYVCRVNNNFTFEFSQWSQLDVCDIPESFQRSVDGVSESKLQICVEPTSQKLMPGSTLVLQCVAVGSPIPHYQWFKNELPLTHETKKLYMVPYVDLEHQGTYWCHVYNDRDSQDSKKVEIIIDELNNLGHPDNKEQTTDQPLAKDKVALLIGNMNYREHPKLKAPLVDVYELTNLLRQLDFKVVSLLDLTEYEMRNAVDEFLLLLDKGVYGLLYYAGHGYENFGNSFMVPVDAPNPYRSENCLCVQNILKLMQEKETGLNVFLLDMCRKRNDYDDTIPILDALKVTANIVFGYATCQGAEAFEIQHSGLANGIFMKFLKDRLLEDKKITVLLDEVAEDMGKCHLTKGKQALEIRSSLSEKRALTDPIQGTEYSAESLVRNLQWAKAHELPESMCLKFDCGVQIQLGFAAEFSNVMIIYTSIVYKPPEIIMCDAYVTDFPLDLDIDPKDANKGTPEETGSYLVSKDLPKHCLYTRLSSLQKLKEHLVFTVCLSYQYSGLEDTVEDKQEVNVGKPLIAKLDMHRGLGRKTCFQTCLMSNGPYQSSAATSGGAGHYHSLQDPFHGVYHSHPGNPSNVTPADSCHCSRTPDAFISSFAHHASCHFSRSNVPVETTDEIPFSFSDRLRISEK
Experimental: The MALT1 cleavage assay was used to screen ˜18000 small molecules of the ChemBioNet library at the Leibniz Institute for Molecular Pharmacology (FMP) in Berlin.^35 Screening volume was 11 μl in a 384-well non-binding assay plate (Corning) with […] GSTMALT1 against 10 μM final concentration of compounds. The assay was performed with 50 μM of Ac-LRSR-AMC substrate for 20 min at 30° C. As a negative control the recombinant MALT1 mutant C453A was used, as a medium inhibition control 1 nM of the Z-VRPR-FMK peptide.
To screen for small molecular weight compounds that can inhibit MALT1 protease activity, recombinant GSTMALT1 was purified from E. coli to establish an in vitro protease cleavage assay suitable for high throughput screening (HTS). GSTMALT1 was incubated for 1 h at 30° C. in the presence of 50 μM of the tetrapeptide substrate Ac-LRSR-AMC, which is derived from the MALT1 cleavage site in the C-terminus of BCL10.^7 Proteolytic activity was determined by measuring the increase of fluorescence, which is emitted after cleavage and the accompanying release of the fluorophore AMC (FIGS. 1A and B). […] Similar to arginine-lysine specific metacaspases, the MALT1 protease has a high preference for cleaving after an arginine residue.

[3] = biological target: AtMC9 (Arabidopsis thaliana (Mouse-ear cress), UniProt Q9FYE1); conditions: cited from earlier work
Chain of AtMC9 (Q9FYE1 whole entry): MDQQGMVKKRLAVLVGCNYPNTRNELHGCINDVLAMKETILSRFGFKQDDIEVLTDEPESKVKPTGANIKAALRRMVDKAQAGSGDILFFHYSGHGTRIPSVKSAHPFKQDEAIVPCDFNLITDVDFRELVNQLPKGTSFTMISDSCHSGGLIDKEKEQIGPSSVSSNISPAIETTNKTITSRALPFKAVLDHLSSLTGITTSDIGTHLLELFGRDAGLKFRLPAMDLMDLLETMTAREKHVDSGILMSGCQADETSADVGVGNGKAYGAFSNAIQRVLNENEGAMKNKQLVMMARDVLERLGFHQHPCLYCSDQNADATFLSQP

[4] = biological target: AtMC4 (Arabidopsis thaliana (Mouse-ear cress), UniProt O64517); conditions: cited from earlier work
Chain of AtMC4 (O64517 whole entry): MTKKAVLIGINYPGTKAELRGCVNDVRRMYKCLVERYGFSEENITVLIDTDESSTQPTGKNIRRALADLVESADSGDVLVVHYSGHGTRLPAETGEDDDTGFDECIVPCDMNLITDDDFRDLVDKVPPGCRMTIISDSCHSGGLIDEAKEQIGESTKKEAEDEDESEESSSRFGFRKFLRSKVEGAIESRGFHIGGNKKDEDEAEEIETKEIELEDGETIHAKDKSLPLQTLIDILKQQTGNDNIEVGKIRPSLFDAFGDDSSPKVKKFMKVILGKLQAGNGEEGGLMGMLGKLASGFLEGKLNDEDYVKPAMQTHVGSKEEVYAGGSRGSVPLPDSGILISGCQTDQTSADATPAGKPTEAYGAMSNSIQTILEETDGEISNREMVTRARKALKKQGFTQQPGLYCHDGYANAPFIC

[5] = system: GCB-DLBCL cells; test: Viability by cell counting, GCB-DLBCL cells; format: cell-based; conditions: 4 days of treatment
Experimental: (§1) Viability of DLBCL cell lines was analysed with a cell count assay of trypan blue stained cells after four days and by MTT (3-4,5-Dimethylthiazol-2-yl-2,5-diphenyltetrazoliumbromid) cytotoxicity test after two days of dose-dependent inhibitor treatment in comparison to DMSO treated control cells. The cell-dependent reduction of MTT to formazan was measured at λ=450 nm with a μQuant microplate spectrophotometer (Biotek). Apoptosis rates were determined with PE-Annexin V staining of 7AAD^− cells (BD Pharmingen) by FACS analysis (LSRII, BD) after five days of compound treatment. Data was analyzed using FlowJo software (Treestar).
(§2) Further, cell viability was determined by cell counting after 4 days of treatment (FIG. 7B, D and FIG. 12C).

[6] = system: ABC-DLBCL cells; test: Viability by cell counting, ABC-DLBCL cells; format: cell-based; conditions: 4 days of treatment
Experimental: as §1, §2

[7] = system: ABC-DLBCL cells; test: Apoptosis by AnnexinV-PE/7-AAD FACS, ABC-DLBCL cells; format: cell-based; conditions: 15 μM, five days
Experimental: as §1

[8] = system: ABC-DLBCL cells HBL1, OCI-Ly3, U2932 and TMD8; test: MTT cytotoxicity test, ABC-DLBCL cells; format: cell-based; conditions: two days, single treatment, increasing concentrations
Experimental: as §1, §2

[9] = system: GCB-DLBCL cell lines BJAB, Su-DHL-6 and Su-DHL-4; test: MTT cytotoxicity test, GCB-DLBCL cells; format: cell-based; conditions: two days, single treatment, increasing concentrations
Experimental: as §1, §2

[10] = system: primary murine CD4+ T-cells; test: IL-2 mRNA (qPCR) and protein (ELISA) in primary murine CD4+ T cells; format: cell-based, mouse; conditions: 5 and 10 μM
[11] = system: NF-κB; test: NF-κB DNA binding (EMSA) and NF-κB target proteins in ABC-DLBCL cells; format: cell-based; conditions: 10 and 20 μM
[12] = system: Jurkat T cells; test: IL-2 secretion of Jurkat T cells (ELISA); format: cell-based, human; conditions: 5 and 10 μM; P/I or anti-CD3/CD28 for 20 h
[13] = system: ABC-DLBCL cell line OCI-Ly10; test: Murine DLBCL xenogeneic tumor model, ABC-DLBCL OCI-Ly10; format: in vivo, NSG mice
Experimental: (§3) (A) Transplantation of OCI-Ly10 or Su-DHL-6 cells resuspended in matrigel (BD) into the flanks of NOD.Cg-Prkdc^scid ll2rg^tm1Wjl/SzJ (NSG) mice was carried out on day 0. Tumor size was determined by caliper measurement. […] Apoptosis was determined on tumor sections by TUNEL staining after 22 days of treatment. Pictures show staining of representative tumor sections. […] Expression of RelB and the MALT1-dependent cleavage product RelBΔ were detected in extracts of OCI-Ly10 tumor specimens by Western Blotting after 22 days.
(§4) For this purpose, the ABC-DLBCL cell line OCI-Ly10 and the GCB-DLBCL cell line Su-DHL-6 were injected as subcutaneous xenografts into NOD/scid IL-2Rg^null (NSG) mice (FIG. 8A). Both tumor cell lines were engrafted simultaneously on opposite flanks of individual mice.
(§5) Transplanted tumors were removed at the end of the treatment period and apoptotic cells were visualized by TUNEL staining on sections of the tumor tissue (FIG. 8B).

[14] = system: primary human PBMCs; test: IL-2 secretion of primary human PBMCs (ELISA); format: cell-based; conditions: 5 and 10 μM for 3 h; anti-CD3/CD28 20 h
[15] = system: ABC-DLBCL cells; test: IL-6 and IL-10 secretion of ABC-DLBCL cells (ELISA); conditions: 20 h; ABC cell lines
Experimental: Whole cell extracts, Western blotting and EMSA were performed as described previously.^9 Antibodies used were BCL-XL (Cell signaling), MALT1 (H300, B12), BCL10 (H197), c-FLIP (Alexis Biochemicals) and β-Actin (I-19). BCL10 cleavage was visualized after 20 h treatment of diffuse large B-cell lymphoma cells with different doses of PD.

[16] = system: GCB-DLBCL cells; test: Apoptosis by AnnexinV-PE/7-AAD FACS, GCB-DLBCL cells; format: cell-based; conditions: 15 μM, five days
Experimental: as §1

[17] = system: GCB-DLBCL cell line Su-DHL-6; test: Murine DLBCL xenogeneic tumor model, GCB-DLBCL Su-DHL-6; format: in vivo, NSG mice
Experimental: as §3, §4, §5

[18] = daily i.p., mepazine 12 mg/kg or thioridazine 16 mg/kg, 22 days

## Ac-DEVD-CHO
[1]
  CASP8 activity against Ac-DEVD-AMC: almost total decline of enzymatic activity; also recorded: effectively blocked CASP8 activity
[2]; 200 μM inhibitor
  effect on MALT1 activity: not significantly active; also recorded: only marginally reduced MALT1 activity

## Cc1ccc(S(=O)(=O)NC(CCCCN)C(=O)CCl)cc1 (stereo not shown) [TLCK]
[3]; 1 μM inhibitor
  effect on AtMC9: strongly inhibits
[4]; 1 μM inhibitor
  effect on AtMC4: much weaker
[2]; 1 μM inhibitor
  effect on MALT1 activity: no effects; also recorded: only mildly affecting MALT1 activity

## Z-VRPR-FMK
[2]; 1 nM inhibitor, 50 μM Ac-LRSR-AMC, 1 h at 30° C.
  decrease of MALT1 activity: ~50%
[2]; increasing amounts, low nanomolar concentrations
  MALT1 cleavage activity with increasing amounts of inhibitor: total loss of MALT1 activity; also recorded: completely blocked MALT1 cleavage activity

## CC(CN1c2ccccc2Sc2ccccc21)N(C)C (stereo not shown) [promethazine]
[5]
  number of viable cells / viability: did not significantly inhibit viability
[6]
  number of viable cells / viability: did not significantly inhibit viability
[2]; concentrations up to 20 μM
  MALT1 inhibition: not inhibiting MALT1 protease activity; also recorded: did not cause any significant MALT1 inhibition

## CC(C)[C@H](NC(=O)[C@H](CCCNC(=N)N)NC(=O)N[C@@H](Cc1ccccc1)C(=O)O)C(=O)N[C@H](C=O)CCCNC(=N)N [Antipain] ({Phe-CO}-Arg-Val-Arg-aldehyde)
[3]; 1 μM inhibitor
  effect on AtMC9: inhibited
[4]; 1 μM inhibitor
  effect on AtMC4: inhibited
[2]; 1 μM inhibitor
  effect on MALT1 activity: diminished; also recorded: inhibited

## CN1CCCC(CN2c3ccccc3Sc3ccccc32)C1 (stereo not shown) [mepazine, 10-[(1-methyl-3-piperidinyl)methyl]-10H-phenothiazine acetate]
[7]
  apoptotic rate: enhanced apoptotic rate
[8]
  cell viability by MTT: promoted a decrease of cell viability
[9]
  cell viability by MTT: without significantly affecting GCB-DLBCL cells
[10]; 3 h pre-treatment, anti-CD3/CD28 4 h
  IL-2 mRNA induction: reduced in a dose-dependent manner
[10]; anti-CD3/CD28 20 h
  IL-2 protein expression: reduced in a dose-dependent manner
[11]; 20 h
  BCL-XL and FLIP-L protein levels: dose-dependent decrease
[11]; 20 hours
  NF-κB target DNA binding: reduced NF-κB target DNA binding
[12]
  secreted IL-2 levels: decrease of IL-2 levels
[13]; Western Blot after 22 days
  constitutive RelB cleavage in OCI-Ly10 tumor specimens: impaired
[13]; after 22 days of treatment
  apoptotic cells in tumor sections (TUNEL): increased the number of apoptotic cells
[13]; [18]
  tumor growth of OCI-Ly10 xenograft: strongly impaired the expansion
[14]
  IL-2 secretion: significant decrease of IL-2 secretion
[15]
  decrease of IL-6 and IL-10 secretion: ~50%
[16]
  apoptotic rate: apoptosis was not increased
[17]; after 22 days of treatment
  apoptotic cells in tumor sections (TUNEL): no induction of apoptosis
[17]; [18]
  tumor growth of Su-DHL-6 xenograft: completely failed to exert any inhibitory effects

## CC(C)CC(=O)N[C@H](C(=O)N[C@H](C(=O)N[C@@H](CC(C)C)[C@@H](O)CC(=O)N[C@@H](C)C(=O)N[C@@H](CC(C)C)[C@@H](O)CC(=O)O)C(C)C)C(C)C [Pepstatin A] (Isovaleryl-VV[Sta]A[Sta]-OH)
[2]; 100 μM inhibitor
  effect on MALT1 activity: no effects

## CC(C)C[C@H](NC(=O)[C@H]1O[C@@H]1C(=O)O)C(=O)NCCCCN=C(N)N [E-64]
[3]; 100 μM inhibitor
  effect on AtMC9: not AtMC9
[4]; 100 μM inhibitor
  effect on AtMC4: mild effect
[2]; 100 μM inhibitor
  effect on MALT1 activity: does not inhibit MALT1

## CC(=O)N[C@@H](CC(C)C)C(=O)N[C@@H](CC(C)C)C(=O)N[C@H](C=O)CCCNC(=N)N [Leupeptin]
[3]; 1 μM inhibitor
  effect on AtMC9: acting stronger on plant metacaspases
[4]; 1 μM inhibitor
  effect on AtMC4: acting stronger on plant metacaspases

## CC(C)C[C@H](NC(=O)[C@@H](NC(=O)N[C@@H](Cc1ccccc1)C(=O)O)[C@@H]1CCN=C(N)N1)C(=O)N[C@H](C=O)Cc1ccccc1 [Chymostatin]
[3]; 100 μM inhibitor
  effect on AtMC9: inhibited
[4]; 100 μM inhibitor
  effect on AtMC4: inhibited
[2]; 100 μM inhibitor
  effect on MALT1 activity: diminished; also recorded: inhibited

## Aprotinin
[2]; 5 μg/ml inhibitor
  effect on MALT1 activity: no effects

## c1ccc2c(c1)Nc1ccccc1S2 [phenothiazine]
[2]; 1, 5 and 20 μM
  inhibition of GSTMALT1 activity: inhibiting MALT1 activity in a dose-dependent manner
